# Measurements published in PubChem BioAssay (NCI).
# “And” between values parts separate entries of the source, which are not always exact repeats. Identical values can stand only once.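 All cell lines were grown in 96-well plates and treated with compound for 48 hours. Abbreviation: GI50, concentration required for 50% inhibition of growth. TGI marks complete inhibition of growth.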
# How the values were obtained:
# Experiment in all cases: inhibition of tumour cell growth, NCI panel, 48 h
# OVCAR-3 ovarian = tested on: OVCAR-3 ovarian
# NCI-H460 lung = tested on: NCI-H460 lung
# DLD-1 colon = tested on: DLD-1 colon
# M19-MEL melanoma = tested on: M19-MEL melanoma
# MALME-3M melanoma = tested on: MALME-3M melanoma
# OVCAR-4 ovarian = tested on: OVCAR-4 ovarian
# NCI-H23 lung = tested on: NCI-H23 lung
# NCI-H226 lung = tested on: NCI-H226 lung
# SR leukemia = tested on: SR leukemia
# PC-3 prostate = tested on: PC-3 prostate
SMILES,TGI (OVCAR-3 ovarian),TGI (NCI-H460 lung) [µM],TGI (DLD-1 colon) [µM],TGI (M19-MEL melanoma) [µM],TGI (MALME-3M melanoma),TGI (OVCAR-4 ovarian),TGI (NCI-H23 lung),TGI (NCI-H226 lung),TGI (SR leukemia) [µM],GI50 (MALME-3M melanoma) [µM],GI50 (OVCAR-3 ovarian) [µM],GI50 (NCI-H460 lung) [µM],GI50 (DLD-1 colon) [µM],GI50 (M19-MEL melanoma) [µM],GI50 (OVCAR-4 ovarian) [µM],GI50 (NCI-H23 lung) [µM],GI50 (NCI-H226 lung) [µM],GI50 (PC-3 prostate) [µM],TGI (PC-3 prostate),GI50 (SR leukemia) [µM]
CN1c2ccccc2N(C)C2C1N(C)c1ccccc1N2C (stereo unspecified),50.2 µM,> 100,62.6,32.7,76.4 µM,> 100 µM,74.7 µM,83.2 µM,–,–,–,–,–,–,–,–,–,–,–,–
COC1OC(CO)C(O)C(O)C1Br (stereo unspecified),> 100 µM,> 100,> 100,> 100,> 100 µM,> 100 µM,> 100 µM,–,> 100,–,–,–,–,–,–,–,–,–,–,–
CO/C1=C\C(C)=C\C(C)C(O)C(C)C/C(C)=C/C=C/C(OC)C(C(C)C(O)C(C)C2(O)CC(O)C(C)C(C(C)C)O2)OC1=O (stereo unspecified),–,–,21.7,3.12,0.0914 µM and 0.0629 µM,15.6 µM,15 µM,–,–,0.0237,–,–,–,–,–,–,–,–,–,–
COc1cc2noc(-c3ccccc3)c2cc1OC,–,> 100,> 100,> 100,> 100 µM,> 100 µM,–,> 100 µM,> 100,–,–,–,–,–,–,–,–,–,–,–
C(CCC[Te][Te]CCCCCCOC1CCCCO1)CCOC1CCCCO1 (stereo unspecified),–,30,45.8,–,20.5 µM,–,31.1 µM,–,38.2,–,–,–,–,–,–,–,–,–,–,–
COc1cccc(C(=O)N2CCc3ccccc32)c1OC,> 100 µM,> 100,–,> 100,> 100 µM,> 100 µM,> 100 µM,> 100 µM,> 100,–,–,–,–,–,–,–,–,–,–,–
O=C(O)/C(=C/c1c(O)ccc2ccccc12)c1csc(-c2nc(/C(=C\c3c(O)ccc4ccccc34)C(=O)O)cs2)n1,31.3 µM,49.1,35.5,19.9,3.95 µM,–,27.1 µM,7.39 µM,–,–,–,–,–,–,–,–,–,–,–,–
CC(=O)OC1CC2C(C)(C)C(=O)C=C[C@]2(C)C2CCC3(C)C(c4ccoc4)C(=O)[C@H]4O[C@]43[C@]12C (stereo partly specified),–,36.8,28.3,55.2,32.1 µM,> 100 µM,50.4 µM,50.4 µM,–,–,–,–,–,–,–,–,–,–,–,–
NC(=O)N/N=C/C(/C=N/NC(N)=O)[N+](=O)[O-],> 100 µM,–,> 100,> 100,> 100 µM,> 100 µM,> 100 µM,> 100 µM,–,–,–,–,–,–,–,–,–,–,–,–
COCC(=O)CP(=O)(OC)OC,> 100 µM,> 100,–,> 100,> 100 µM,> 100 µM,> 100 µM,–,–,–,–,–,–,–,–,–,–,–,–,–
CC1(C)OC(=O)C=C([O-])O1.CC1(C)OC(=O)C=C([O-])O1.O=S(=O)([O-])c1ccc([O-])c2ncccc12.O=S(=O)([O-])c1ccc([O-])c2ncccc12.[Ti+4],> 100 µM,> 100,> 100,> 100,> 100 µM,> 100 µM,> 100 µM,> 100 µM,–,> 100,86.4,41.8,> 100,> 100,> 100,> 100,> 100,–,–,–
Cc1c(C(=O)NCCO)[n+](=O)c2cc(Cl)ccc2n1[O-],> 100 µM,> 100,> 100,> 100,> 100 µM,> 100 µM,> 100 µM,–,> 100,–,–,–,–,–,–,–,–,–,–,–
CN(CN1C(=O)C2Cc3ccccc3CN2C1=O)c1ccccn1 (stereo unspecified),> 100 µM,> 100,> 100,> 100,> 100 µM,> 100 µM,> 100 µM,> 100 µM,> 100,–,–,–,–,–,–,–,–,–,–,–
Cn1c(=O)nc2n(-c3cccc(F)c3)c3ccccc3nc-2c1=O,21.5 µM,67.1,> 100,5.3,28.2 µM,27.8 µM,35.2 µM,> 100 µM,–,–,–,–,–,–,–,–,–,–,–,–
Nc1nnc2cc(Cl)ccc2n1,> 100 µM,> 100,–,–,> 100 µM,> 100 µM,> 100 µM,> 100 µM,> 100,> 100,> 100,> 100,–,–,> 100,> 100,> 100,24.4,> 100 µM,> 100
O=C(Nc1ccc(F)cc1)c1c(NC(=O)C(F)(F)F)sc2c1CCCCC2,16.3 µM,10,–,–,5.72 µM,8.34 µM,8.82 µM,5.46 µM,> 100,1.81,2.04,2.13,–,–,1.65,2,1.76,1.59,7.87 µM,1.29
COc1cc2c3c(c1)c1cc(OC)c(OC)cc1c[n+]3CC2,50 µM and > 100 µM,47.8,–,–,7.93 µM and 13 µM,50 µM and > 100 µM,45.6 µM and > 100 µM,50 µM and 77.3 µM,50,2.71,17.7,–,–,–,18.2,–,4.13,29.9,50 µM and > 100 µM,–
CCNC(=O)C#CC(=O)NCC,> 100 µM,> 100,> 64.9,> 100,> 100 µM,> 100 µM,> 100 µM,> 100 µM,> 61.4,> 100,> 10,> 10,> 10,> 10,> 10,> 10,> 100,–,–,> 10
CC(=O)OCCOCNC(=S)N/N=C(\C)c1cnc2ccccc2n1,> 100 µM,> 100,> 100,77.1,> 100 µM,> 100 µM,> 100 µM,> 100 µM,> 100,–,–,–,–,–,–,–,–,–,–,–
C=C=C(CC)C(C(=O)OC)N(CC)CC (stereo unspecified),> 100 µM,> 100,> 100,> 100,> 100 µM,> 100 µM,> 100 µM,> 100 µM,> 100,–,–,–,–,–,–,–,–,–,–,–
Cn1c(=O)c(Oc2ccccc2F)cc2cnc(NC3CCOCC3)nc21,> 25 µM,> 25,–,–,> 25 µM,> 25 µM,> 25 µM,> 25 µM,> 25,> 25,> 25,> 25,–,–,> 25,> 25,> 25,> 25,> 25 µM,> 25
O=C1C[C@@H]2C(COC(=O)c3ccccc3)N(OCc3ccccc3)C[C@@H]2O1 (stereo partly specified),> 100 µM,> 100,> 100,> 100,> 100 µM,> 100 µM,> 100 µM,> 100 µM,> 100,–,–,–,–,–,–,–,–,–,–,–
